Laboratory results as given in paper PMC5566973 (Frontiers in Pharmacology, 2017).

Assays:
in vitro = test: in vitro
Experimental: (§1) Caco-2, MDCK and MDCK-MRP2 cells were donated by Prof. Yan Xie and Yueming Ma from Shanghai University of Traditional Chinese Medicine. The cells were grown in culture dishes (Corning® Costar, Cambridge, MA, USA) using DMEM supplemented with 10% FBS, 1% NEAA and 1% penicillin-streptomycin solution. The cells were cultured in 5% CO2 and […] with 90% relative humidity at 37°C. The medium was replaced every other day during incubation. The cells were passaged every 3–4 days between 70 and 80% confluence at a 1:5 split ratio using 0.25% trypsin-EDTA. For the transport experiments, the cells from passages between 30 and 45 were seeded at 1 × 10^5 cells/cm^2 onto permeable polycarbonate inserts (0.45 μm pore size, seeding surface of 0.6 cm^2, Millipore, MA, USA) in 24-well plastic plates. The media in the culture plates were changed every other day for the first week after seeding and were replaced daily afterward. […] The cells were used for the transport experiments 21–28 (Caco-2) or 5–7 (MDCK and MDCK-MRP2) days after seeding, and only monolayers with a TEER-value above 420 Ω cm^2 were used during the studies.
(§2) The apical (AP) and basolateral (BL) sides are typical of polarized Caco-2, MDCK and MDCK-MRP2 epithelial cells. Before the experiments, the polarized cell monolayers were washed twice with warm HBSS solution and subsequently preincubated (37°C, 30 min). Afterward, HBSS solution on both sides of the cell monolayers was removed using a mini desktop vacuum pump. […] The final DMSO concentration in the HBSS or drug mixture was below 0.5%. The monolayers were incubated at 37°C, and 100 μL samples were taken at 30, 60, 90, and 120 min from the acceptor compartment and immediately replaced with the same volume of prewarmed fresh blank HBSS. TEER measurements for assessing the membrane integrity took place before and after the experiments.
(§3) The apparent permeability coefficients (Papp) and ER were calculated as Equations (2) and (3): […]
(§4) where dQ/dt is the steady-state flux, A is the membrane surface area, and C0 is the initial drug concentration in the donor compartment. PappBA is the Papp-value measured in BL to AP direction and PappAB is the Papp-value measured in AP to BL direction. It indicated the involvement of an active transport process when the ER-value is above 1.5 (Hubatsch et al., [2007]).

PEPT1 = test: in vitro; conditions: human, Caco-2, PappAB
Experimental: as §1, §2, §3, §4

MDCK cell monolayers = test: in vitro
Experimental: as §1, §2, §3, §4

OATs = test: in vitro; conditions: human, Caco-2, PappBA, Caco-2, 2 μM, + Cimetidine 0.05 mM (OATs)
Experimental: as §1, §2, §3, §4

MRP2 = test: in vitro; conditions: human, Caco-2, PappAB
Experimental: as §1, §2, §3, §4

OATPs = test: in vitro; conditions: human, Caco-2, PappAB
Experimental: as §1, §2, §3, §4

[1] = system: ATP (adenosine triphosphate); test: in vitro; conditions: human, Caco-2, PappAB
Experimental: as §1, §2, §3, §4

Na+/K+-ATPase = test: in vitro; conditions: human
Experimental: as §1, §2, §3, §4

BCRP = test: in vitro; conditions: human, Caco-2, PappAB
Experimental: as §1, §2, §3, §4

Caco-2 cell monolayers = test: in vitro
Experimental: as §1, §2, §3, §4

MDR1 = test: in vitro; conditions: human, Caco-2, PappBA, Caco-2, 2 μM
Experimental: as §1, §2, §3, §4

[2] = Caco-2, 2 μM, + Apigenin 0.025 mM (BCRP)
[3] = Caco-2, 2 μM, + ES 0.05 mM (OATPs)
[4] = Caco-2, 2 μM, + Gly-Sar 10 mM (PEPT1)
[5] = Caco-2, 2 μM, + Ko143 0.01 mM (BCRP)
[6] = Caco-2, 2 μM, + MK571 0.05 mM (MRP2)
[7] = Caco-2, 2 μM, + NaN3 10 mM (ATP)
[8] = Caco-2, 2 μM, + Phloretin 0.3 mM (MCTs)
[9] = Caco-2, 2 μM, + Phloridzin 0.5 mM (SGLT1)
[10] = Caco-2, 2 μM, + Probenecid 0.2 mM (MRP2)
[11] = Caco-2, 2 μM, + TEA 5 mM (OCTs/OCTNs)
[12] = Caco-2, 2 μM, Control (no inhibitor or substrate)

Work on `COc1ccc2c(c1)[nH]c1c(C)nccc12` [Harmine] yielded a Papp A→B (in vitro; dog, MDCK, PappAB, initial concentration 1 μM) of 37 ± 1.4 nm/s, a Papp A→B (in vitro; dog, MDCK, PappAB, initial concentration 2 μM) of 46 ± 2.5 nm/s and a Papp A→B (in vitro; dog, MDCK, PappAB, initial concentration 5 μM) of 71.1 ± 8.9 nm/s. The Papp B→A (in vitro; dog, MDCK, PappBA, initial concentration 1 μM) was 58.1 ± 1.9 nm/s, the Papp B→A (in vitro; dog, MDCK, PappBA, initial concentration 2 μM) was 73.2 ± 1.9 nm/s and the Papp B→A (in vitro; dog, MDCK, PappBA, initial concentration 5 μM) was 116 ± 1.5 nm/s. For the same compound, the Papp A→B (in vitro; dog, MDCK, pH 5.5, PappAB, 2 μM, pH 5.5) was 22.4 ± 2.9 nm/s, the Papp B→A (in vitro; dog, MDCK, pH 5.5, PappBA, 2 μM, pH 5.5) was 34.2 ± 4.8 nm/s and the Papp A→B (in vitro; human, Caco-2, PappAB, Caco-2, 2 μM, 4°C) was 15.8 ± 5.7 nm/s. It also gave a Papp A→B (in vitro; human, Caco-2, PappAB, Caco-2, initial concentration 1 μM) of 151 ± 7.3 nm/s, a Papp A→B (in vitro; human, Caco-2, PappAB, Caco-2, initial concentration 2 μM) of 188 ± 12.6 nm/s and a Papp A→B (in vitro; human, Caco-2, PappAB, Caco-2, initial concentration 5 μM) of 312 ± 14.2 nm/s. The Papp B→A (in vitro; human, Caco-2, PappBA, Caco-2, 2 μM, 4°C) was 24.1 ± 8.5 nm/s, the Papp B→A (in vitro; human, Caco-2, PappBA, Caco-2, initial concentration 1 μM) was 228 ± 2.5 nm/s and the Papp B→A (in vitro; human, Caco-2, PappBA, Caco-2, initial concentration 2 μM) was 293 ± 12.1 nm/s. The Papp B→A (in vitro; human, Caco-2, PappBA, Caco-2, initial concentration 5 μM) was 483 ± 28.1 nm/s, the Papp A→B (in vitro; human, Caco-2, pH 5.5, PappAB, Caco-2, 2 μM, pH 5.5) was 52.7 ± 2.9 nm/s and the Papp B→A (in vitro; human, Caco-2, pH 5.5, PappBA, Caco-2, 2 μM, pH 5.5) was 41.7 ± 10.3 nm/s. For the same compound, the Papp A→B (PEPT1) was 183 ± 12.8 nm/s, the PappAB (MDCK cell monolayers; 2 μM, 4°C) was 1.85 ± 0.55^*** 1 × 10^−6 cm/s and the PappAB (MDCK cell monolayers; 2 μM, Control (pH 7.4, 37°C, without EDTA)) was 4.60 ± 0.25 1 × 10^−6 cm/s. The PappAB (MDCK cell monolayers; 2 μM, with EDTA 5 mM) was 7.47 ± 1.31^* 1 × 10^−6 cm/s, the PappBA (MDCK cell monolayers; 2 μM, with EDTA 5 mM) was 8.98 ± 0.90 1 × 10^−6 cm/s and the PappAB (MDCK cell monolayers; 2 μM, with EDTA 5 mM, listed as harmine) was 7.47 ± 1.31 1 × 10^−6 cm/s. For the same compound, the PappBA (MDCK cell monolayers; dog, pH 7.4) was 7.32 ± 0.19 1 × 10^−6 cm/s, the Papp B→A (OATs) was 276 ± 15.4 nm/s and the Papp A→B (MRP2) was 299 ± 21.4 nm/s. It also gave a Papp A→B (OATPs) of 146 ± 13.1 nm/s, a Papp A→B [1] of 141 ± 3.9 nm/s and a Papp A→B (Na+/K+-ATPase; Caco-2, PappAB) of 131 ± 9.3 nm/s. The Papp B→A (Na+/K+-ATPase; Caco-2, PappBA, Caco-2, 2 μM, + Sodium vanadate 0.05 mM (Na^+)) was 262 ± 17.8 nm/s, the Papp A→B (BCRP) was 190 ± 36.7 nm/s and the PappAB (Caco-2 cell monolayers; Caco-2, 2 μM, 4°C) was 1.58 ± 0.57 1 × 10^−6 cm/s. The Modulatory effect (Caco-2 cell monolayers; [2]) was “−”, the PappBA (Caco-2 cell monolayers; [2]) was 28.40 ± 4.27 1 × 10^−6 cm/s and the Modulatory effect (Caco-2 cell monolayers; Caco-2, 2 μM, + Cimetidine 0.05 mM (OATs)) was “−”. The Modulatory effect (Caco-2 cell monolayers; [3]) was “+”, the PappAB (Caco-2 cell monolayers; [3]) was 14.64 ± 1.31 1 × 10^−6 cm/s and the PappBA (Caco-2 cell monolayers; [3]) was 28.43 ± 1.89 1 × 10^−6 cm/s. For the same compound, the Modulatory effect (Caco-2 cell monolayers; [4]) was “−”, the PappBA (Caco-2 cell monolayers; [4]) was 27.86 ± 1.96 1 × 10^−6 cm/s and the Modulatory effect (Caco-2 cell monolayers; [5]) was “−”. For the same compound, the PappBA (Caco-2 cell monolayers; [5]) was 27.96 ± 3.86 1 × 10^−6 cm/s, the Modulatory effect (Caco-2 cell monolayers; [6]) was “+” and the PappBA (Caco-2 cell monolayers; [6]) was 29.36 ± 2.73 1 × 10^−6 cm/s. For the same compound, the Modulatory effect (Caco-2 cell monolayers; [7]) was “+”, the PappBA (Caco-2 cell monolayers; [7]) was 27.94 ± 1.76 1 × 10^−6 cm/s and the Modulatory effect (Caco-2 cell monolayers; [8]) was “−”. For the same compound, the PappBA (Caco-2 cell monolayers; [8]) was 27.37 ± 2.13 1 × 10^−6 cm/s, the Modulatory effect (Caco-2 cell monolayers; [9]) was “−” and the PappBA (Caco-2 cell monolayers; [9]) was 29.39 ± 1.30 1 × 10^−6 cm/s. The Modulatory effect (Caco-2 cell monolayers; [10]) was “+”, the PappBA (Caco-2 cell monolayers; [10]) was 27.93 ± 2.33 1 × 10^−6 cm/s and the Modulatory effect (Caco-2 cell monolayers; Caco-2, 2 μM, + Quinidine 0.1 mM (MDR1)) was “−”. For the same compound, the Modulatory effect (Caco-2 cell monolayers; Caco-2, 2 μM, + Sodium vanadate 0.05 mM (Na^+)) was “+”, the Modulatory effect (Caco-2 cell monolayers; [11]) was “+” and the PappBA (Caco-2 cell monolayers; [11]) was 28.05 ± 1.20 1 × 10^−6 cm/s. For the same compound, the Modulatory effect (Caco-2 cell monolayers; Caco-2, 2 μM, + Verapamil 0.1 mM (MDR1)) was “−”, the PappAB (Caco-2 cell monolayers; [12]) was 18.52 ± 2.06 1 × 10^−6 cm/s and the PappBA (Caco-2 cell monolayers; [12]) was 29.40 ± 1.38 1 × 10^−6 cm/s. For the same compound, the PappBA (Caco-2 cell monolayers; Caco-2, 2 μM, Control (pH 7.4, 37°C, without EDTA)) was 29.34 ± 1.21 1 × 10^−6 cm/s, the PappBA (Caco-2 cell monolayers; Caco-2, 2 μM, with EDTA 5 mM) was 29.67 ± 2.22 1 × 10^−6 cm/s and the “increase of PappAB” value (Caco-2 cell monolayers; Caco-2, + MK571 vs control) was 1.62 folds. The “increase of PappAB” value (Caco-2 cell monolayers; Caco-2, + probenecid vs control) was 1.27 folds, the “ER-values at the tested concentrations” value (Caco-2 cell monolayers; Caco-2 and MDCK, 1, 2, and 5 μM) was > 1.5 and the PappAB (Caco-2 cell monolayers; human, Caco-2) was 24.11 ± 2.53^* 1 × 10^−6 cm/s. The PappAB (Caco-2 cell monolayers; human, Caco-2, pH 7.4) was 18.78 ± 1.26 1 × 10^−6 cm/s, the Papp B→A (MDR1; + Quinidine 0.1 mM (MDR1)) was 290 ± 39.6 nm/s and the Papp B→A (MDR1; + Verapamil 0.1 mM (MDR1)) was 285 ± 37.7 nm/s.
